Read-outs that look alike come from different tables or passages of the source.
Columns and labels:
[1] = target: T1, MDM2 (Homo sapiens, UniProt Q00987); experiment: Inhibition test of MDM2-P53 (GST-MDM2, Biotin-P53, Anti-GST-Tb, SA-XL665); assay type: binding
T1 construct: made in house
Procedure, shortened: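 Binding was measured by TR-FRET with GST-MDM2 at 4 nM final in PBS with 0.1% BSA, 5 mM DTT and 1 mM AEBSF. Compounds were tested as twelve-point 5-fold dilutions and incubated with the detection mix for 90 min at 25 °C with shaking before plate-reader reading and curve fitting.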

[2] = test system: human osteosarcoma cell line SJSA-1; experiment: Inhibition of proliferation of human osteosarcoma cell line SJSA-1 (DAPI staining, In Cell Analyzer)
[3] = Homo sapiens, SJSA-1, 72 h, read-out: IC50 (nM), inhibitory activity on proliferation of human osteosarcoma cell line SJSA-1, SJSA-1, incubated 72 h
[4] = labels are Example numbers, the compounds with S-configuration are meant

T1 sequence (Q00987 whole entry): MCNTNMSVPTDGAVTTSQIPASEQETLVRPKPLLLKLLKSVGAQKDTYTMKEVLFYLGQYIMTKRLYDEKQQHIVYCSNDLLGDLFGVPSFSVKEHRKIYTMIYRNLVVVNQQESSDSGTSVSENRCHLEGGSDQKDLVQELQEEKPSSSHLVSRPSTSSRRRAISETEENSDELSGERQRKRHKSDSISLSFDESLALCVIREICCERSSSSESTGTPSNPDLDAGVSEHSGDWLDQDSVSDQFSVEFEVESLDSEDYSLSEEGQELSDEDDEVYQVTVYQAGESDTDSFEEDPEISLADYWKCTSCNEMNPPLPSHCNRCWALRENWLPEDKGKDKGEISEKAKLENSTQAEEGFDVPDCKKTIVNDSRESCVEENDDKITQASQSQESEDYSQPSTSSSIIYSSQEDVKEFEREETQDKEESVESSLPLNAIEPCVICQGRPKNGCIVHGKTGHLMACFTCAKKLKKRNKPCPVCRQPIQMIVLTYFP

Row | Compound | IC50 [1] | IC50 [2, 3] | IC50 ([2]; read-out: IC50 (nM), inhibitory activity on proliferation of human osteosarcoma cell line SJSA-1, SJSA-1, incubated 72 h) | inhibitory effect on MDM2 compared with positive control compound HDM201 [1, 4] | inhibitory effect on human osteosarcoma cell line SJSA-1 compared with positive control compound HDM201 [2, 4]
1 | COc1cc(C(C)C)ncc1-c1nc2c(n1C(C)C)[C@@]1(C(=O)Nc3cc(Cl)ccc31)N(c1cc(Cl)ccc1C)C2=O [Example S-164, (S)-6-chloro-5′-(5-chloro-2-methylphenyl)-3′-isopropyl-2′-(6-isopropyl-4-methoxypyridin-3-yl)-3′H-spiro[dihydroindole-3,4′-pyrrolo[3,4-d]imidazole]-2,6′(5′H)-dione] | 0.94 nM | 16.8 nM | – | – | –
2 | COc1nc(C(C)C)ncc1-c1nc2c(n1C(C)C)[C@@]1(C(=O)Nc3cc(Cl)ccc31)N(c1cc(Cl)ccc1C)C2=O [Example S-172, (S)-6-chloro-5′-(5-chloro-2-methylphenyl)-3′-isopropyl-2′-(2-isopropyl-4-methoxypyrimidin-5-yl)-3′H-spiro[dihydroindole-3,4′-pyrrolo[3,4-d]imidazole]-2,6′(5′H)-dione] | 4.15 nM | 53.3 nM | – | – | –
3 | COc1ncc(-c2nc3c(n2C(C)C)[C@@]2(C(=O)Nc4cc(Cl)ccc42)N(c2cc(Cl)cn(C)c2=O)C3=O)c(OC)n1 [Example S-16, (S)-6-chloro-5′-(5-chloro-1-methyl-2-oxo-1,2-dihydropyridin-3-yl)-2′-(2,4-dimethoxypyrimidin-5-yl)-3′-isopropyl-3′H-spiro[dihydroindole-3,4′-pyrrolo[3,4-d]imidazole]-2,6′(5′H)-dione] | 3.39 nM | 3560 nM | – | – | –
4 | CCOc1ncc(-c2nc3c(n2C(C)C)[C@@]2(C(=O)Nc4cc(Cl)ccc42)N(c2cccc(Cl)c2)C3=O)c(OC)n1 [Example S-123, (S)-6-chloro-5′-(3-chlorophenyl)-2′-(2-ethoxy-4-methoxypyrimidin-5-yl)-3′-isopropyl-3′H-spiro[dihydroindole-3,4′-pyrrolo[3,4-d]imidazole]-2,6′(5′H)-dione] | 2.11 nM | 321 nM | – | – | –
5 | COc1ncc(-c2nc3c(n2C(C)C)[C@@]2(C(=O)Nc4cc(Cl)ccc42)N(c2cccc(C)c2)C3=O)c(OC)n1 [Example S-55, (S)-6-chloro-2′-(2,4-dimethoxypyrimidin-5-yl)-3′-isopropyl-5′-(m-tolyl)-3′H-spiro[dihydroindole-3,4′-pyrrolo[3,4-d]imidazole]-2,6′(5′H)-dione] | 4.25 nM | 117 nM | – | – | –
6 | CNc1ccc(-c2nc3c(n2C(C)C)[C@]2(C(=O)Nc4cc(Cl)ccc42)N(c2cc(Cl)ccc2C)C3=O)c(OC)c1 [Example R-25, (R)-6-chloro-5′-(5-chloro-2-methylphenyl)-3′-isopropyl-2′-(2-methoxy-4-(methylamine)phenyl)-3′H-spiro[dihydroindole-3,4′-pyrrolo[3,4-d]imidazole]-2,6′(5′H)-dione] | 51.9 nM | 265 nM | – | – | –
7 | COc1cc(N)c(F)cc1-c1nc2c(n1C(C)C)[C@]1(C(=O)Nc3cc(Cl)ccc31)N(c1cc(Cl)ccc1C)C2=O [Example R-75, (R)-2′-(4-amino-5-fluoro-2-methoxyphenyl)-6-chloro-5′-(5-chloro-2-methylphenyl)-3′-isopropyl-3′H-spiro[dihydroindole-3,4′-pyrrolo[3,4-d]imidazole]-2,6′(5′H)-dione] | 122 nM | 3040 nM | – | – | –
8 | COc1cc(C(F)(F)F)ccc1-c1nc2c(n1C(C)C)[C@]1(C(=O)Nc3cc(Cl)ccc31)N(c1cc(Cl)cnc1C)C2=O [Example R-144, (R)-6-chloro-5′-(5-chloro-2-methylpyridin-3-yl)-3′-isopropyl-2′-(2-methoxy-4-(trifluoromethyl)phenyl)-3′H-spiro[dihydroindole-3,4′-pyrrolo[3,4-d]imidazole]-2,6′(5′H)-dione] | 119 nM | 2450 nM | – | – | –
9 | COc1cc(OC(F)(F)F)ccc1-c1nc2c(n1C(C)C)[C@@]1(C(=O)Nc3cc(Cl)ccc31)N(c1cc(Cl)ccc1C)C2=O [Example S-87, (S)-6-chloro-5′-(5-chloro-2-methylphenyl)-3′-isopropyl-2′-(2-methoxy-4-(trifluoromethoxy)phenyl)-3′H-spiro[dihydroindole-3,4′-pyrrolo[3,4-d]imidazole]-2,6′(5′H)-dione] | 3.31 nM | 11.1 nM | – | – | –
10 | COc1ncc(-c2nc3c(n2C(C)C)[C@]2(C(=O)Nc4cc(Cl)ccc42)N(c2cc(Cl)ccc2OC)C3=O)c(OC)n1 [Example R-17, (R)-6-chloro-5′-(5-chloro-2-methoxyphenyl)-2′-(2,4-dimethoxypyrimidin-5-yl)-3′-isopropyl-3′H-spiro[dihydroindole-3,4′-pyrrolo[3,4-d]imidazole]-2,6′(5′H)-dione] | 49.4 nM | 1310 nM | 2440 nM | – | –
11 | COc1cc(N)c(C)cc1-c1nc2c(n1C(C)C)[C@]1(C(=O)Nc3cc(Cl)ccc31)N(c1cc(Cl)ccc1C)C2=O [Example R-74, (R)-2′-(4-amino-2-methoxy-5-methylphenyl)-6-chloro-5′-(5-chloro-2-methylphenyl)-3′-isopropyl-3′H-spiro[dihydroindole-3,4′-pyrrolo[3,4-d]imidazole]-2,6′(5′H)-dione] | 93.4 nM | 1840 nM | – | – | –
12 | CCOc1cc(OC)c(-c2nc3c(n2C(C)C)[C@]2(C(=O)Nc4cc(Cl)ccc42)N(c2cc(Cl)ccc2C)C3=O)cn1 [Example R-72, (R)-6-chloro-5′-(5-chloro-2-methylphenyl)-2′-(6-ethoxy-4-methoxypyridin-3-yl)-3′-isopropyl-3′H-spiro[dihydroindole-3,4′-pyrrolo[3,4-d]imidazole]-2,6′(5′H)-dione] | 214 nM | 3480 nM | – | – | –
13 | CCc1ccc(OC)c(-c2nc3c(n2C(C)C)[C@@]2(C(=O)Nc4cc(Cl)ccc42)N(c2cccc(Cl)c2)C3=O)c1 [Example S-38, (S)-6-chloro-5′-(3-chlorophenyl)-2′-(5-ethyl-2-methoxyphenyl)-3′-isopropyl-3′H-spiro[dihydroindole-3,4′-pyrrolo[3,4-d]imidazole]-2,6′(5′H)-dione] | 12 nM | 14.7 nM | – | – | –
14 | COc1ncc(-c2nc3c(n2C(C)C)[C@@]2(C(=O)Nc4cc(Cl)ccc42)N(c2ccc(C)c(Cl)c2)C3=O)c(OC)n1 [Example S-20, (S)-6-chloro-5′-(3-chloro-4-methylphenyl)-2′-(2,4-dimethoxypyrimidin-5-yl)-3′-isopropyl-3′H-spiro[dihydroindole-3,4′-pyrrolo[3,4-d]imidazole]-2,6′(5′H)-dione] | 4.39 nM | 48.1 nM | – | – | –
15 | COc1ccncc1-c1nc2c(n1C(C)C)[C@]1(C(=O)Nc3cc(Cl)ccc31)N(c1cc(Cl)ccc1C)C2=O [Example R-18, (R)-6-chloro-5′-(5-chloro-2-methylphenyl)-3′-isopropyl-2′-(4-methoxypyridin-3-yl)-3′H-spiro[dihydroindole-3,4′-pyrrolo[3,4-d]imidazole]-2,6′(5′H)-dione] | 158 nM | 1620 nM | – | – | –
16 | COc1cc(OC(F)F)ncc1-c1nc2c(n1C(C)C)[C@@]1(C(=O)Nc3cc(Cl)ccc31)N(c1cc(Cl)ccc1C)C2=O [Example S-150, (S)-6-chloro-5′-(5-chloro-2-methylphenyl)-2′-(6-(difluoromethoxy)-4-methoxypyridin-3-yl)-3′-isopropyl-3′H-spiro[dihydroindole-3,4′-pyrrolo[3,4-d]imidazole]-2,6′(5′H)-dione] | 1.93 nM | 80.5 nM | – | – | –
17 | COc1ccc(N2C(=O)c3nc(-c4ccc(N)cc4OC)n(C(C)C)c3[C@@]23C(=O)Nc2cc(Cl)ccc23)cc1Cl [Example S-71, (S)-2′-(4-amino-2-methoxyphenyl)-6-chloro-5′-(3-chloro-4-methoxyphenyl)-3′-isopropyl-3′H-spiro[dihydroindole-3,4′-pyrrolo[3,4-d]imidazole]-2,6′(5′H)-dione] | 2.96 nM | 292 nM | – | – | –
18 | COc1c(F)cccc1-c1nc2c(n1C(C)C)[C@@]1(C(=O)Nc3cc(Cl)ccc31)N(c1cc(Cl)ccc1C)C2=O [Example S-76, (S)-6-chloro-5′-(5-chloro-2-methylphenyl)-2′-(3-fluoro-2-methoxyphenyl)-3′-isopropyl-3′H-spiro[dihydroindole-3,4′-pyrrolo[3,4-d]imidazole]-2,6′(5′H)-dione] | 4.23 nM | 309 nM | – | – | –
19 | CCOc1ncc(-c2nc3c(n2C(C)C)[C@@]2(C(=O)Nc4cc(Cl)ccc42)N(c2cc(Cl)ccc2F)C3=O)c(OC)n1 [Example S-97, (S)-6-chloro-5′-(5-chloro-2-fluorophenyl)-2′-(2-ethoxy-4-methoxypyrimidin-5-yl)-3′-isopropyl-3′H-spiro[dihydroindole-3,4′-pyrrolo[3,4-d]imidazole]-2,6′(5′H)-dione] | 3.94 nM | 167 nM | – | – | –
20 | COc1ccc(C(=O)N(C)C)cc1-c1nc2c(n1C(C)C)C1(C(=O)Nc3cc(Cl)ccc31)N(c1cc(Cl)ccc1C)C2=O (stereo not drawn) [Example 22, 3-(6-chloro-5′-(5-chloro-2-methylphenyl)-3′-isopropyl-2,6′-dioxo-5′,6′-dihydro-3′H-spiro[dihydroindole-3,4′-pyrrolo[3,4-d]imidazole]-2′-yl)-4-methoxy-N,N-dimethylbenzamide] | – | – | – | better | better
21 | COc1cc(C)ccc1-c1nc2c(n1C(C)C)[C@@]1(C(=O)Nc3cc(Cl)ccc31)N(c1cc(Cl)ccc1C)C2=O [Example S-24, (S)-6-chloro-5′-(5-chloro-2-methylphenyl)-3′-isopropyl-2′-(2-methoxy-4-methylphenyl)-3′H-spiro[dihydroindole-3,4′-pyrrolo[3,4-d]imidazole]-2,6′(5′H)-dione] | 4.4 nM | 4.17 nM | – | – | –
22 | COc1cc(OCCF)ncc1-c1nc2c(n1C(C)C)[C@@]1(C(=O)Nc3cc(Cl)ccc31)N(c1cccc(Cl)c1)C2=O [Example S-177, (S)-6-chloro-5′-(3-chlorophenyl)-2′-(6-(2-fluoroethoxy)-4-methoxypyridin-3-yl)-3′-isopropyl-3′H-spiro[dihydroindole-3,4′-pyrrolo[3,4-d]imidazole]-2,6′(5′H)-dione] | 2.37 nM | 421 nM | – | – | –
